How the values were obtained:
[1] = Cytotoxicity against S-180cisR cells by MTT assay.; assay type: functional, cell-based, Mus musculus
[2] = Cytotoxicity against S-180 cells by MTT assay.; assay type: functional, cell-based, Mus musculus

For CISPLATIN, the IC50 [1] was 59 µM and the IC50 [2] was 2.4 µM.
cis-[PtCl2(NH3)(2-C6H5CH2C5H4N)] gave an IC50 [1] of 49 µM.
Work on cis-[PtCl2(NH3)(2-CH3C5H4N)] yielded an IC50 [1] of 49 µM.
With cis-[PtCl2(NH3)(3-CH3C5H4N)] the IC50 [1] was 49 µM.
In the case of cis-[PtCl2(NH3)(3-CH3CH2C5H4N)], the IC50 [1] is reported as 49 µM.
Substance cis-[PtCl(2-C6H4C5H4)(2-C6H5C5H4N)] has an IC50 [1] of 8.6 µM and an IC50 [2] of 3.1 µM.

From ChEMBL document CHEMBL1134842, “Mononuclear platinum(II) complex with 2-phenylpyridine ligands showing high cytotoxicity against mouse sarcoma 180 cells acquiring high cisplatin resistance” (J Med Chem, 2001)
